Conditions: Liquid, Vibrating tube method

CCCCCCC [heptane]
Conditions | mass density [kg/m3]
303.15 K, 19974 kPa | 693.813
303.15 K, 21920 kPa | 695.403
303.15 K, 24992 kPa | 697.736
303.15 K, 31958 kPa | 702.727
303.15 K, 32862 kPa | 703.514
303.15 K, 33112 kPa | 703.9
303.15 K, 34081 kPa | 704.468
303.15 K, 34980 kPa | 705.109
303.15 K, 37951 kPa | 707.216
303.15 K, 39904 kPa | 708.418
303.15 K, 42014 kPa | 709.635
303.15 K, 44896 kPa | 711.236
303.15 K, 47951 kPa | 713.224
303.15 K, 50065 kPa | 714.711
303.15 K, 52073 kPa | 715.915
303.15 K, 55074 kPa | 717.452
303.15 K, 57989 kPa | 719.654
303.15 K, 59979 kPa | 720.537
303.15 K, 62052 kPa | 721.855
303.15 K, 64988 kPa | 723.925
303.15 K, 66030 kPa | 724.328
303.16 K, 2964.9 kPa | 678.337
303.16 K, 7045.6 kPa | 682.343
303.16 K, 8858.2 kPa | 683.448
303.16 K, 10014 kPa | 684.334
303.16 K, 18021 kPa | 692.198
303.16 K, 27933 kPa | 699.906
303.16 K, 29990 kPa | 701.007
308.15 K, 105 kPa | 671.006
308.15 K, 274.3 kPa | 671.143
308.15 K, 494.1 kPa | 671.318
308.15 K, 803.3 kPa | 671.687
308.15 K, 1039.5 kPa | 672.093
308.15 K, 1916.7 kPa | 672.909
308.15 K, 2980.7 kPa | 674.097
308.15 K, 4990.2 kPa | 676.132
308.15 K, 6964.9 kPa | 678.143
308.15 K, 8864.3 kPa | 679.887
308.15 K, 9863.1 kPa | 680.761
308.15 K, 12009 kPa | 682.857
308.15 K, 17850 kPa | 687.815
308.15 K, 19930 kPa | 689.488
308.15 K, 21988 kPa | 691.177
308.15 K, 25012 kPa | 693.658
308.15 K, 27955 kPa | 695.718
308.15 K, 29906 kPa | 696.905
308.15 K, 31929 kPa | 698.302
308.15 K, 32886 kPa | 699.002
308.15 K, 32941 kPa | 698.96
308.15 K, 34011 kPa | 700.438
308.15 K, 37971 kPa | 703.176
308.15 K, 40011 kPa | 704.309
308.15 K, 41998 kPa | 705.614
308.15 K, 45017 kPa | 707.854
308.15 K, 48033 kPa | 709.906
308.15 K, 50044 kPa | 711.265
308.15 K, 51977 kPa | 712.584
308.15 K, 54982 kPa | 714.563
308.15 K, 58009 kPa | 716.265
308.15 K, 60030 kPa | 717.688
308.15 K, 61985 kPa | 718.959
308.15 K, 64980 kPa | 720.569
308.16 K, 15069 kPa | 685.368
308.16 K, 34949 kPa | 701.078
308.16 K, 66088 kPa | 721.543
313.15 K, 100.8 kPa | 666.87
313.15 K, 316 kPa | 667.185
313.15 K, 569.6 kPa | 667.234
313.15 K, 1088.8 kPa | 668.002
313.15 K, 2109.7 kPa | 669.053
313.15 K, 3137 kPa | 670.192
313.15 K, 5111.8 kPa | 672.198
313.15 K, 6921.8 kPa | 674.169
313.15 K, 9210.7 kPa | 676.379
313.15 K, 10209 kPa | 677.309
313.15 K, 12020 kPa | 679.079
313.15 K, 15059 kPa | 681.665
313.15 K, 17921 kPa | 684.308
313.15 K, 19932 kPa | 686.1
313.15 K, 22058 kPa | 687.733
313.15 K, 24862 kPa | 690.068
313.15 K, 27869 kPa | 692.385
313.15 K, 29957 kPa | 693.806
313.15 K, 32107 kPa | 695.43
313.15 K, 32980 kPa | 696.141
313.15 K, 33002 kPa | 696.147
313.15 K, 33981 kPa | 697.086
313.15 K, 35045 kPa | 697.948
313.15 K, 38127 kPa | 700.098
313.15 K, 41978 kPa | 702.778
313.15 K, 44946 kPa | 704.758
313.15 K, 47880 kPa | 706.851
313.15 K, 52097 kPa | 709.812
313.15 K, 54924 kPa | 711.549
313.15 K, 58082 kPa | 713.474
313.15 K, 59932 kPa | 714.707
313.15 K, 62004 kPa | 716.103
313.15 K, 64954 kPa | 717.814
313.15 K, 66113 kPa | 718.367
313.16 K, 860.7 kPa | 667.671
313.16 K, 39997 kPa | 701.327
313.16 K, 50021 kPa | 708.33
318.15 K, 100.7 kPa | 662.812
318.15 K, 336.3 kPa | 663.228
318.15 K, 1105.7 kPa | 663.94
318.15 K, 1929.1 kPa | 664.905
318.15 K, 2933.2 kPa | 665.972
318.15 K, 8989 kPa | 672.331
318.15 K, 10074 kPa | 673.533
318.15 K, 11896 kPa | 675.253
318.15 K, 18102 kPa | 681.046
318.15 K, 19985 kPa | 682.727
318.15 K, 22094 kPa | 684.679
318.15 K, 29998 kPa | 691.196
318.15 K, 33016 kPa | 693.259
318.15 K, 33180 kPa | 693.331
318.15 K, 37838 kPa | 697.046
318.15 K, 40092 kPa | 698.439
318.15 K, 44884 kPa | 701.561
318.15 K, 47944 kPa | 703.663
318.15 K, 54944 kPa | 708.215
318.15 K, 57972 kPa | 710.506
318.15 K, 59922 kPa | 711.605
318.15 K, 65022 kPa | 714.898
318.15 K, 66028 kPa | 715.438
318.16 K, 590.9 kPa | 663.443
318.16 K, 891 kPa | 663.766
318.16 K, 5020.8 kPa | 668.355
318.16 K, 6926.7 kPa | 670.309
318.16 K, 14800 kPa | 678.075
318.16 K, 24873 kPa | 686.865
318.16 K, 27909 kPa | 689.38
318.16 K, 31957 kPa | 692.414
318.16 K, 34110 kPa | 694.119
318.16 K, 35048 kPa | 694.934
318.16 K, 41996 kPa | 699.6
318.16 K, 49950 kPa | 705.2
318.16 K, 52037 kPa | 706.412
318.16 K, 61930 kPa | 712.85
323.15 K, 102.3 kPa | 658.378
323.15 K, 296.1 kPa | 658.71
323.15 K, 528.4 kPa | 658.782
323.15 K, 994.2 kPa | 659.429
323.15 K, 2006.9 kPa | 660.61
323.15 K, 2966.6 kPa | 661.806
323.15 K, 4996.2 kPa | 663.968
323.15 K, 7042.1 kPa | 666.276
323.15 K, 9029.9 kPa | 667.858
323.15 K, 10090 kPa | 669.742
323.15 K, 11914 kPa | 670.973
323.15 K, 15111 kPa | 674.373
323.15 K, 17981 kPa | 677.251
323.15 K, 20038 kPa | 678.71
323.15 K, 21995 kPa | 680.737
323.15 K, 24993 kPa | 683.213
323.15 K, 32079 kPa | 689.177
323.15 K, 33103 kPa | 689.972
